The values that follow come from patent US11021470B2, “2-substituted quinazoline compounds comprising a substituted heterocyclic group and methods of use thereof” (Araxes Pharma LLC, priority 2015, dated 2021).

In the first assay the target is T1, KRAS G12C 1-169, his-tagged protein, GDP-loaded (Homo sapiens, UniProt P01116, G12C).
T1 construct: KRAS G12C 1-169, his-tagged protein, GDP-loaded
Put plainly: KRAS G12C covalent binding (% modification) by mass spectrometry, ten or three minute incubation. The conditions noted are these: covalent binding to KRAS G12C after a ten minute incubation period. The procedure, abridged: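 GDP-loaded protein in 20 mM Hepes, 150 mM NaCl, 1 mM MgCl2 was incubated with compound (final 100, 30 or 10 μM; 2% DMSO) at room temperature, then quenched with formic acid. Intact-protein LC-MS with charge-envelope deconvolution gave masses and intensities of modified and unmodified species.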
Take `C=CC(=O)N1C[C@H](C)N(c2nc(N3CC(N(C)C)C3)nc3c(F)c(-c4c(O)cccc4F)c(Cl)cc23)C[C@H]1C` (atropisomer, axis not shown) [Compound 53, 1-((2R,5S)-4-((R)-6-chloro-2-(3-(dimethylamino)azetidin-1-yl)-8-fluoro-7-(2-fluoro-6-hydroxyphenyl)quinazolin-4-yl)-2,5-dimethylpiperazin-1-yl)prop-2-en-1-one]: the Binding % result was “++ (++ indicates binding activity from 50 to 90%)”. Same read-out and setting: the result for `C=CC(=O)N1C[C@H](C)N(c2nc(N3CC(N(C)C)C3)nc3c(F)c(-c4c(C)ccc5[nH]ncc45)c(Cl)cc23)C[C@H]1C` [Compound 54, 1-((2R,5S)-4-(6-chloro-2-(3-(dimethylamino)azetidin-1-yl)-8-fluoro-7-(5-methyl-1H-indazol-4-yl)quinazolin-4-yl)-2,5-dimethylpiperazin-1-yl)prop-2-en-1-one] reads “+++ (+++ indicates binding activity greater than 90%)”.

The same assay, now with this note: covalent binding to KRAS G12C, % modification after a three minute incubation period.
On to `C=CC(=O)N1C[C@H](C)N(c2nc(N3CC(N(C)C)C3)nc3c(F)c(-c4c(O)cccc4F)c(C(F)(F)F)cc23)C[C@H]1C` (atropisomer, axis not shown) [Compound 270, 1-((2R,5S)-4-(2-(3-(dimethylamino)azetidin-1-yl)-8-fluoro-7-((R)-2-fluoro-6-hydroxyphenyl)-6-(trifluoromethyl)quinazolin-4-yl)-2,5-dimethylpiperazin-1-yl)prop-2-en-1-one], for which the Binding % entry is “+++ (+++ indicates binding activity greater than 90%)”.

As to `C=CC(=O)N1C[C@H](C)N(c2nc(OCC(C)(C)N)nc3c(F)c(-c4c(O)cccc4F)c(Cl)cc23)C[C@H]1C` [Compound 274, 1-((2R,5S)-4-(2-(2-amino-2-methylpropoxy)-6-chloro-8-fluoro-7-(2-fluoro-6-hydroxyphenyl)quinazolin-4-yl)-2,5-dimethylpiperazin-1-yl)prop-2-en-1-one], the Binding % result was “+ (+ indicates binding activity greater than 0% and up to 50%)”.

On to `C=CC(=O)N1C[C@H](C)N(c2nc(OCCc3cncnc3)nc3c(F)c(-c4c(O)cccc4F)c(Cl)cc23)C[C@H]1C` (atropisomer, axis not shown) [Compound 262, 1-((2R,5S)-4-(6-chloro-8-fluoro-7-((S)-2-fluoro-6-hydroxyphenyl)-2-(2-(pyrimidin-5-yl)ethoxy)quinazolin-4-yl)-2,5-dimethylpiperazin-1-yl)prop-2-en-1-one], for which the Binding % result is given as “+++ (+++ indicates binding activity greater than 90%)”.

For `[2H]C([2H])([2H])N(C1CN(c2nc(N3C[C@@H](C)N(C(=O)C=C)C[C@@H]3C)c3cc(Cl)c(-c4c(O)cccc4F)c(F)c3n2)C1)C([2H])([2H])[2H]` [Compound 196, 1-((2R,5S)-4-(2-(3-(bis(trideuteromethyl)amino)azetidin-1-yl)-6-chloro-8-fluoro-7-(2-fluoro-6-hydroxyphenyl)quinazolin-4-yl)-2,5-dimethylpiperazin-1-yl)prop-2-en-1-one], the Binding % result is recorded as “+++ (+++ indicates binding activity greater than 90%)”. Regarding `C=CC(=O)N1C[C@H](C)N(c2nc(N3CC(N(C)C)C3)nc3c(F)c(-c4c(C)ccc5[nH]nc([N+](=O)[O-])c45)c(Cl)cc23)C[C@H]1C` [Compound 297, 1-((2R,5S)-4-(6-chloro-2-(3-(dimethylamino)azetidin-1-yl)-8-fluoro-7-(5-methyl-3-nitro-1H-indazol-4-yl)quinazolin-4-yl)-2,5-dimethylpiperazin-1-yl)prop-2-en-1-one], the Binding % result is “+ (+ indicates binding activity greater than 0% and up to 50%)”. Same read-out and setting: to `[2H]C([2H])([2H])N(C1CN(c2nc(N3C[C@@H](C)N(C(=O)C=C)C[C@@H]3C)c3cc(Cl)c(-c4c(O)cccc4F)c(F)c3n2)C1)C([2H])([2H])[2H]` (atropisomer, axis not shown) [Compound 207, 1-((2R,5S)-4-(2-(3-(bis(tridueteromethyl)amino)azetidin-1-yl)-6-chloro-8-fluoro-7-((S)-2-fluoro-6-hydroxyphenyl)quinazolin-4-yl)-2,5-dimethylpiperazin-1-yl)prop-2-en-1-one] belongs “+++ (+++ indicates binding activity greater than 90%)”; to `C=CC(=O)N1C[C@H](C)N(c2nc(N3CC(N(C)C)C3)nc3c(F)c(-c4c(C)ccc5cn[nH]c45)c(Cl)cc23)C[C@H]1C` [Compound 187, 1-((2R,5S)-4-(6-chloro-2-(3-(dimethylamino)azetidin-1-yl)-8-fluoro-7-(6-methyl-1H-indazol-7-yl)quinazolin-4-yl)-2,5-dimethylpiperazin-1-yl)prop-2-en-1-one], “+++ (+++ indicates binding activity greater than 90%)”. Same read-out and setting: to `C=CC(=O)N1C[C@H](C)N(c2nc(OCCn3ccnc3C3CC3)nc3c(F)c(-c4c(C)ccc5[nH]ncc45)c(Cl)cc23)C[C@H]1C` [Compound 276, 1-((2R,5S)-4-(6-chloro-2-(2-(2-cyclopropyl-1H-imidazol-1-yl)ethoxy)-8-fluoro-7-(5-methyl-1H-indazol-4-yl)quinazolin-4-yl)-2,5-dimethylpiperazin-1-yl)prop-2-en-1-one] belongs “++ (++ indicates binding activity from 50 to 90%)”. Same read-out and setting: the result for `[2H]C([2H])([2H])N(C1CN(c2nc(N3C[C@@H](C)N(C(=O)C=C)C[C@@H]3C)c3cc(Cl)c(-c4c(C)ccc5[nH]ncc45)c(F)c3n2)C1)C([2H])([2H])[2H]` (atropisomer, axis not shown) [Compound 226, 1-((2R,5S)-4-(6-chloro-2-(3-(bis(tridueteromethyl)amino)azetidin-1-yl)-8-fluoro-7-((R)-5-methyl-1H-indazol-4-yl)quinazolin-4-yl)-2,5-dimethylpiperazin-1-yl)prop-2-en-1-one] reads “+++ (+++ indicates binding activity greater than 90%)”. In the case of `C=CC(=O)N1CCN(c2nc(N3CC(N(C)C)C3)nc3c(F)c(-c4c(O)cccc4F)c(C(F)(F)F)cc23)C[C@H]1C` (atropisomer, axis not shown) [Compound 272, 1-((R)-4-(2-(3-(dimethylamino)azetidin-1-yl)-8-fluoro-7-((R)-2-fluoro-6-hydroxyphenyl)-6-(trifluoromethyl)quinazolin-4-yl)-2-methylpiperazin-1-yl)prop-2-en-1-one], the Binding % result is “+++ (+++ indicates binding activity greater than 90%)”.

On to `C=CC(=O)N1C[C@H](C)N(c2nc(N3CC(N(C)C)C3)nc3c(F)c(-c4c(F)ccc5cn[nH]c45)c(Cl)cc23)C[C@H]1C` [Compound 261, 1-((2R,5S)-4-(6-chloro-2-(3-(dimethylamino)azetidin-1-yl)-8-fluoro-7-(6-fluoro-1H-indazol-7-yl)quinazolin-4-yl)-2,5-dimethylpiperazin-1-yl)prop-2-en-1-one], for which the Binding % result is recorded as “+++ (+++ indicates binding activity greater than 90%)”. Consider `C=CC(=O)N1C[C@H](C)N(c2nc(OCCN3CC(F)(F)C3)nc3c(F)c(-c4c(O)cccc4F)c(Cl)cc23)C[C@H]1C` (atropisomer, axis not shown) [Compound 90, 1-((2R,5S)-4-(6-chloro-2-(2-(3,3-difluoroazetidin-1-yl)ethoxy)-8-fluoro-7-((S)-2-fluoro-6-hydroxyphenyl)quinazolin-4-yl)-2,5-dimethylpiperazin-1-yl)prop-2-en-1-one], for which the Binding % result is recorded as “++ (++ indicates binding activity from 50 to 90%)”. With `C=CC(=O)N1C[C@H](C)N(c2nc(OCCN3CC(F)(F)C3)nc3c(F)c(-c4c(O)cccc4F)c(Cl)cc23)C[C@H]1C` [Compound 89, 1-((2R,5S)-4-(6-chloro-2-(2-(3,3-difluoroazetidin-1-yl)ethoxy)-8-fluoro-7-((R)-2-fluoro-6-hydroxyphenyl)quinazolin-4-yl)-2,5-dimethylpiperazin-1-yl)prop-2-en-1-one], the Binding % entry is “+ (+ indicates binding activity greater than 0% and up to 50%)”. On the same count and under the same terms, the result for “1-((2R,5S)-4-(6-chloro-2-(2-(diethylamino)ethoxy)-8-fluoro-7-((S)-6-methyl-1H-indazol-7-yl)quinazolin-4-yl)-2,5-dimethylpiperazin-1-yl)prop-2-en-1-one [Compound 157]” reads “+ (+ indicates binding activity greater than 0% and up to 50%)”; that for `C=CC(=O)N1C[C@H](C)N(c2nc(OCCn3ccccc3=O)nc3c(F)c(-c4c(O)cccc4F)c(Cl)cc23)C[C@H]1C` (atropisomer, axis not shown) [Compound 265, 1-(2-(4-((2S,5R)-4-acryloyl-2,5-dimethylpiperazin-1-yl)-6-chloro-8-fluoro-7-((S)-2-fluoro-6-hydroxyphenyl)quinazolin-2-yloxy)ethyl)pyridin-2(1H)-one], “+++ (+++ indicates binding activity greater than 90%)”; that for `[2H]C([2H])([2H])N(C1CN(c2nc(N3C[C@@H](C)N(C(=O)C=C)C[C@@H]3C)c3cc(Cl)c(-c4c(O)cccc4F)c(F)c3n2)C1)C([2H])([2H])[2H]` (atropisomer, axis not shown) [Compound 212, 1-((2R,5S)-4-(2-(3-(bis(tridueteromethyl)amino)azetidin-1-yl)-6-chloro-8-fluoro-7-((R)-2-fluoro-6-hydroxyphenyl)quinazolin-4-yl)-2,5-dimethylpiperazin-1-yl)prop-2-en-1-one], “+ (+ indicates binding activity greater than 0% and up to 50%)”.
